# Reference: patent US9394352B2, “Immunogenic POTE peptides and methods of use” (The United States of America, as represented by the …, priority 2010, dated 2016)
# What was measured:
# HLA-A2/POTE252 tetramer = test: HLA-A2/peptide tetramer stain and TCR Vβ repertoire of CTLs from immunized HHD-2 mice; format: in vivo; settings: after 1-week in vitro stimulation with cognate peptide
# Method: FIGS. 7A-7C are FACS plots showing HLA-A2/peptide tetramer staining and T cell receptor (TCR) repertoire determination for POTE 252- and POTE 252-9V-induced CTLs. HHD-2 mice were immunized subcutaneously with a mixture of peptide and cytokines in adjuvant. Two weeks after the second boost, pooled spleen cells from three mice were restimulated with irradiated splenocytes pulsed with 1.0 μM of peptide for 1 week. (FIG. 7A) Percentage of the HLA-A2/POTE252 tetramer-positive cells in the POTE 252- and POTE 252-9V-induced CTLs. (FIG. 7B) TCR Vβ repertoires of the tetramer^+CD8^+ T cells in POTE 252-induced CTLs. (FIG. 7C) TCR Vβ repertoires of the tetramer^+CD8^+ T cells in POTE 252-9V-induced CTLs.
# AAD or HHD-2 mice were immunized subcutaneously (s.c.) in the base of the tail with 100 μl of an emulsion containing 1:1 incomplete Freund's adjuvant (Sigma) and PBS with peptides and cytokines (50 nmol of CTL epitope, 50 nmol of hepatitis B virus core 128-140 helper epitope, 5 μg of mouse interleukin-12, and 5 μg of mouse granulocyte macrophage colony-stimulating factor). Cytokines were purchased from Peprotech (Rocky Hill, N.J.). Mice were boosted 2 weeks later, and the spleens were removed 2 weeks after the boost. For all experiments, groups of three mice were used. […]
# [1] = tested on: IFN-γ secreting spleen cells; test: ex vivo IFN-γ ELISPOT assay on splenocytes of peptide-immunized AAD mice; format: in vivo; settings: AAD mice immunized s.c., splenocytes pooled from three mice two weeks after boost
# Method: FIGS. 3A and 3B are graphs showing immunogenicity of the wild type and enhanced POTE 252 epitopes in AAD mice. AAD mice were immunized subcutaneously with a mixture of peptide and cytokines in adjuvant as described in Example 1. (FIG. 3A) Two weeks after the second boost, splenocytes pooled from three mice were restimulated with splenocytes of naïve AAD mice pulsed with 1.0 μM of each peptide at different effector to target (E/T) ratios. Cells were cultured in anti-mouse IFN-γ antibody coated ELISPOT™ plates. After overnight culture, biotinylated anti-mouse IFN-γ antibodies were added to each well. ELISPOT™ substrates were added to develop the color and spots were counted by an ELISPOT™ reader (AID ELISPOT™ reader system). Figures show numbers of spots per million cells. (FIG. 3B) CTL cross-reactivity on each peptide. Two weeks after the second boost, pooled spleen cells from three mice were restimulated with irradiated splenocytes pulsed with 1.0 μM of peptide for 7 days. In a 4-hour ^51Cr release assay, CIR.AAD cells were pulsed with 1.0 μM of peptide and labeled with ^51Cr. After washing three times, target cells were mixed with different numbers of effector cells and then cultured for 4 hours before harvesting.
# FIGS. 4A-4D are graphs showing immunogenicity of the wild type and enhanced POTE 553 epitopes in AAD mice. AAD mice were immunized subcutaneously with a mixture of peptide and cytokines in adjuvant. (FIGS. 4A and 4B) Two weeks after the second boost, splenocytes pooled from three mice were restimulated with splenocytes of naïve AAD mice pulsed with 10 nM to 1.0 μM of each peptide at different E/T ratios. Cells were cultured in anti-mouse IFN-γ antibody coated ELISPOT™ plates. After overnight culture, biotinylated anti-mouse IFN-γ antibodies were added to each well. ELISPOT™ substrates were added to develop color and spots were counted by an ELISPOT™ reader (AID ELISPOT™ reader system). Figures show numbers of spots per million cells. (FIGS. 4C and 4D) CTL cross-reactivity on each peptide. Two weeks after the second boost, pooled spleen cells from three mice were restimulated with irradiated splenocytes pulsed with 1.0 μM of peptide for 7 days. In a 4-hour ^51Cr release assay, CIR.AAD cells were pulsed with 1.0 μM of peptide and labeled with ^51Cr. After washing three times, target cells were mixed with different numbers of effector cells and then cultured for 4 hours before harvesting.
# FIGS. 5A and 5B are graphs showing immunogenicity of the POTE 272 epitope in AAD mice. AAD mice were immunized subcutaneously with a mixture of peptide and cytokines in adjuvant. (FIG. 5A) Two weeks after the second boost, splenocytes pooled from three mice were restimulated with splenocytes of naïve AAD mice pulsed with 1.0 μM POTE 272 peptide at different E/T ratios. Cells were cultured in anti-mouse IFN-γ antibody coated ELISPOT™ plates. After overnight culture, biotinylated anti-mouse IFN-γ antibodies were added in each well. ELISPOT™ substrates were added to develop color and spots were counted by an ELISPOT™ reader (AID ELISPOT™ reader system). Figures show numbers of spots per million cells. (FIG. 5B) CTL reactivity on POTE 272 peptide. Two weeks after the second boost, pooled spleen cells from three mice were restimulated with irradiated splenocytes pulsed with 1.0 μM POTE 272 peptide for 7 days. In a 4-hour ^51Cr release assay, CIR.AAD cells were pulsed with 1.0 μM POTE 272 peptide and labeled with ^51Cr. After washing three times, target cells were mixed with different numbers of effector cells and then cultured for 4 hours before harvesting.
# FIGS. 6A and 6B are graphs showing immunogenicity of the wild type and enhanced POTE 323 epitopes in AAD mice. AAD mice were immunized subcutaneously with a mixture of peptide and cytokines in adjuvant. (FIG. 6A) Two weeks after the second boost, splenocytes pooled from three mice were restimulated with splenocytes of naïve AAD mice pulsed with 1.0 μM of each peptide at different E/T ratios. […]
sequence,measurement,setting,value
"KLMAKALLL [POTE 252-260, unmodified 9-mer peptide, residues 252-260 of human POTE]",tetramer-positive CD8+ T cells,HLA-A2/POTE252 tetramer,9.3%
same,IFN-γ response (ELISPOT spots) on stimulation with the immunizing peptide,[1],induced a significant number of IFN-γ spots
